Test [1] relates to rhino virus typeII strain. Put plainly: Anti-rhino activity, plaque inhibition in HeLa cells. Conditions: 72 h, plaque number, 30 μg/ml of compound, 3 days at 33° C., read-out: Inhibition percent (%). It is filed as cell-based.
The subject of test [2] is Vero cell (monkey kidney cell). Put plainly: Cytotoxic activity, XTT method. It is filed as cell-based. The following applies: Primates, 96 h, Vero cells, cultured 4 days, read-out: 50% cell growth inhibitory concentration (IC50).

Molecules are shown by their SMILES. Some results are limits rather than exact numbers.

Drawing on USRE43748E1, “Nitrogen-containing heterocyclic carboxamide derivatives or salts thereof and antiviral agents comprising the same” (priority 1998, dated 2012), this text covers inhibition and IC50 for two compounds.

Usually inhibition stands for the percentage by which the read-out fell short of the control.

On to `CC(=O)NC(=O)c1nccnc1O` [No. 3, N^2-acetyl-3-hydroxy-2-pyrazinecarboxamide], for which the inhibition at 30 µg/mL in test [1] is 47.2%.
Regarding `NC(=O)c1nccnc1O` [No. 1, 3-hydroxy-2-pyrazinecarboxamide], in test [2], the IC50 is no less than 250 µg/mL.
